“And” between values parts separate entries of the source, which are not always exact repeats. Equal entries are not always repeated. “Also recorded” adds a separate entry of the source.
What was measured:
Src kinase Srcv2 = Src kinase Srcv2 (Homo sapiens, UniProt P12931); assay: Src protein tyrosine kinase auto-phosphorylation (autoactivation) assay with Srcv2
Procedure: After mixing the kinase with the compound the final DMSO concentration was 40%. Then, 190 µl of the preincubated compound/kinase solution are transfered to 96 well Ni-NTA plates (Ni-NTA HisSorb™ plates, white, Qiagen (cat.No.35081) and incubated for 30 min at room temperature on a rotation shaker at 300 rpm to allow binding of the kinase to the wells. The kinase/compound solution containing unbound kinase and compound is carefully replaced by 200 µl of DMSO free initiation buffer (50 mM Tris/HCl, pH 7.2, 10 mM MgCl2, 100 µM ATP) per well and the plate is incubated for 20 min at room temperature on a rotation shaker at 300 rpm.
The initiation buffer is then removed carefully and the plate is washed two times with PBS-Tween (PBS-T) buffer (50 mM potassium phosphate, pH 7.2, 150 mM NaCl, 0.05 % Tween 20) (200 µl per well per washing step).
The antibody solution is removed carefully and the plate is washed three times with 200 µl PBS-T buffer (200 µl per well per washing step).
• 2.7.1 The assay was used for qualitative and quantitative analysis of different compound classes. […] The assay was performed either manually or in a semiautomatic approach using the EP3 robotor (Perkin Elmer) for automated pipetting steps. […] Solution was removed and 200 µl assay buffer, containing 100µM ATP was added and the plate was incubated for 30 min at RT on a rotation shaker. Solution was removed and wells were washed 3 times with 200µl PBST. Afterwards 200 µl 1:2000 diluted anti p-Tyr antibody in PBST-0.5% BSA was added and the plate was incubated for 30 min at RT on a rotation shaker. The degree of src kinase auto-phosphorylation was detected with an anti p-Tyr-antibody as described above. […] The DMSO concentration was 30 %. […] The measurements were carried out either as unicates or as triplicates. The standard deviation is shown by error bars.
In order to get information about the quality of the assay the z' was determined for the assay. For determination of the maximal counts src v2 in the absence of inhibitor was used.

Src kinase (Srcv1) = Src kinase (Srcv1) (Homo sapiens, UniProt P12931); assay: Src protein tyrosine kinase auto-phosphorylation (autoactivation) assay, Srcv1 immobilised on Ni-NTA plates, anti p-Tyr chemoluminiscence readout
Procedure: The assay will be performed as a solid phase assay, which can be done by immobilisation of the kinase (Srcv1) via its His6-tag on Ni-NTA coated 96 wells (Qiagen), as this assay system allows washing steps. Thus it was evaluated, whether it is possible to detect auto-phosphorylated src kinase, immobilized on Ni-NTA coated plates with an HRP labeled anti p-Tyr antibody. Therefore, Src kinase (1.0µM) was incubated for 30 min either in the presence and absence of 50 µM ATP at RT in incubation buffer (50 mM Tris/HCl, pH 7.2, 10 mM MgCl2). Afterwards the solution was diluted to 1.0, 0.5, 0.25 and 0.0 µM final src protein concentration in PBS and incubated for 30 min (V= 200µl) on NiNTA coated plates at RT on a rotation shaker (300 rpm). After removal of the supernatant and 3 times washing with 200 µl PBS-T, immobilized, phosphorylated src kinase was detected. Therefore, a solution of HRP-labeled anti p-Tyr antibody (Abcam) (200 µl, 1:2000 diluted in PBST-0.5% BSA) was added to the wells and the plate was incubated for 30 min at RT °C, 300 rpm. After removal of the supernatant and 3 times washing with 200 µl PBS-T, chemoluminiscence development buffer was added (200 µl of a 1:1 mixture of ECL substrate, Amersham) and chemoluminiscence signal was quantified using Wallac1420 Multilabel counter (Victor^2).
Afterwards 100 µl assay buffer containing 100 µM ATP was added (except for the negative control which was incubated with 100 µl assay buffer without ATP) and the mixture was transfered to Ni-NTA coated plates and further incubated for 20 min at RT on a rotation shaker (300 rpm). The degree of src kinase auto-phosphorylation was detected with an anti p-Tyr-antibody as described above (see Figure 3a).
The solution was transfered on NiNTA plates and incubated for 30 min with 100 µl assay buffer containing 100 µM ATP for the auto-phosphorylation of src. The degree of src kinase auto-phosphorylation was detected with an anti p-Tyr-antibody as described above (see Figure 3b).

`Cc1ccc(-c2nn(C(C)(C)C)c3ncnc(N)c23)cc1` [PP1] was tested, and the “chemoluminiscence signal (counts), mean, first series” value (Src kinase Srcv2) was 5948, the “chemoluminiscence signal (counts), mean, second series” value (Src kinase Srcv2) was 5700 and the “chemoluminiscence signal (counts), single values, first series” value (Src kinase Srcv2) was 5816 and 5922 and 5781 and 6275. The “chemoluminiscence signal (counts), single values, second series” value (Src kinase Srcv2) was 6060 and 5465 and 5523 and 5752, the “inhibition of Srcv2 kinase (dose response curves, in words)” value (Src kinase Srcv2) was “showed inhibition” and the “inhibition of auto-phosphorylation of src kinase (in words)” value (Src kinase (Srcv1); 100 µl src kinase (1.0 µM), compound 1.25 mM, 30% DMSO, 100 µM ATP, Figure 3b) was “potently inhibits; also recorded: strongest inhibition”. The “inhibition of the kinase activity (in words)” value (Src kinase (Srcv1); Src kinase (100µl, 2.0 µM), PP1 1.25 mM, 10% DMSO, ATP 100 µM, Figure 3A) was “clear inhibition”.
